We go through two molecules from patent publication US7468391B2, “Methods for treating retinoid responsive disorders using selective inhibitors of CYP26A and CYP26B” (Allergan, Inc., priority 2003, dated 2008).

pIC50, pKd: −log10 of the molar value.

For one test, the target named is T1, RAR γ (Homo sapiens, UniProt P13631).
T1 sequence (P13631 1-454): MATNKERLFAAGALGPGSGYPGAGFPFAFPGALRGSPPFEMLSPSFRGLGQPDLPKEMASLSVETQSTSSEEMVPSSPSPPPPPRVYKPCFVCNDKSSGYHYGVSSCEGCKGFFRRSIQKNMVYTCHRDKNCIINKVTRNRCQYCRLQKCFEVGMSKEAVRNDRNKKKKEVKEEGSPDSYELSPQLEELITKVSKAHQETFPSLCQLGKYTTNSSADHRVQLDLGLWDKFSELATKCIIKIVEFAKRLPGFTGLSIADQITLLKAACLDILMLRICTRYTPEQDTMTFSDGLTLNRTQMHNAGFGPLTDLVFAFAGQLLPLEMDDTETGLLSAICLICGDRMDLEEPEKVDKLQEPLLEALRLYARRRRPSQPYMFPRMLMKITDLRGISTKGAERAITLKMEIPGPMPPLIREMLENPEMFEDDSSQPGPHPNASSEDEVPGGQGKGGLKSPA
Put plainly: RAR γ Kd. The class given is binding. Conditions: Table 3.

The subject of test [1] is hamster flank organ sebaceous gland. The test is described as follows: Hamster flank organ sebaceous gland differentiation (model for acne). As to conditions: compared with 13-cis retinoic acid (30 mg/kg), FIG. 3. The class given is in vivo, male golden syrian hamsters. On the procedure: Differentiation of hamster flank organ sebaceous gland is a model system for development of acne. To determine the effectiveness of selective CYP26B inhibitors for treating acne, such inhibitors were tested in this model system. To confirm that this model system can predict the effectiveness of a compound in reducing acne, 13-cis retinoic acid (acutane) was used as a positive control.
For the hamster model system, male golden syrian hamsters were fed LabDiet#5002 rodent diet and housed individually on a 14/10 hr light/dark cycle. For treatment, the animals were randomized according to body weight and they were also weighed at each treatment so that the drug doses could be adjusted accordingly. The animals were treated daily by oral gavage, 6 days/week for 4 weeks. At the end of treatments, the animals were sacrificed by carbon dioxide inhalation. The flank organs were then excised and spread on a small piece of index card which was placed in a histology cassette for fixation in 10% buffered formaldehyde. The specimen was divided into 5 equally spaced portions to make paraffin blocks and one 5-micrometer H&E sections was prepared from each block. The two sections that contained the most sebaceous glands were used to determine the average acini area of the flank organ. A video camera attached to a standard microscope with the 4× objective was used to capture the images of the sebaceous glands. Computer programs Videoshop and NIH Image 1.63 were used to quantify the acini areas. All the recognizable sebaceous glands in the two sections were analyzed and the means were derived for comparison among various treatments. In all studies, blood samples were also collected for determining the levels of serum triglyceride using a triglyceride GPO Trinder kit from Sigma Chemicals (St. Louis, Mo.).

The next test addresses T2, CYP26B (P450RAI-2) (Homo sapiens, UniProt Q9NR63).
T2 construct: expressed in transfected cells; host or cells: HeLa
T2 sequence (Q9NR63 1-512): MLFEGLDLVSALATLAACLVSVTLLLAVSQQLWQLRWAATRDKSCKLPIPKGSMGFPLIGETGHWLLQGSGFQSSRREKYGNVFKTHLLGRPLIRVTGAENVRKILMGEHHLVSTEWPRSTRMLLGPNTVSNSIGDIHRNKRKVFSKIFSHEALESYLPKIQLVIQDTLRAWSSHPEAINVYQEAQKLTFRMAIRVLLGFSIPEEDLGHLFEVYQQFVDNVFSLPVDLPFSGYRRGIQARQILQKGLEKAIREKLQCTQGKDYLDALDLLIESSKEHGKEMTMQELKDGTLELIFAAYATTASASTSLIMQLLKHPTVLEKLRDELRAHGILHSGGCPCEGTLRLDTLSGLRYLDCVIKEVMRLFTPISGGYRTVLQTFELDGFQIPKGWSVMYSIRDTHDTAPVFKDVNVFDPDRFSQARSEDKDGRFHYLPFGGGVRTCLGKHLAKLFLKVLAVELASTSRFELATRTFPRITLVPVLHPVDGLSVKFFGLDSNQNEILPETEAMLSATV
Put plainly: Cell-based inhibition of RA metabolism in CYP26B stably transfected HeLa cells. As to conditions: for pIC50: Table 3, stably transfected HeLa cells, [3H]-RA, 3 hours at 37° C., read-out: CYP26B Intact cells IC50. The essentials: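 Stably transfected HeLa cells (5×10^5/well) in MEM with 10% FBS and 0.05 μCi [3H]-RA, compounds at 10, 1 or 0.1 μM final, 3 h at 37° C. Retinoids extracted by modified Bligh-Dyer (methylene chloride); aqueous radioactivity counted; ID50 for 50% inhibition of RA metabolism derived from log-transformed data.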

As a reminder, the pKd is −log10 of the Kd, conventionally taken in molar units. Low values mean a large Kd, high ones a small Kd. Usually pIC50 stands for the negative decadic logarithm of the IC50, by convention in mol/L. For the molecule `CN(C1CC1)C1CCC(C)(C)c2cc(C#Cc3ccc(C(C)(C)C(=O)O)cc3)ccc21` (stereo not shown) [AGN 198790], the pKd at RAR γ was less than 5.00. In addition, in test [1] (50 mg/kg), the “hamster flank sebaceous gland differentiation” value was “reduced hamster flank sebaceous gland differentiation at least as effectively as 13-cis retinoic acid”. Also, at CYP26B (P450RAI-2), the pIC50 is less than 5.00.

In turn, `CN(Cc1cccc(C#Cc2ccc(/C=C/C(=O)O)cc2)c1)C1CC1` [AGN 199713] showed a pKd at RAR γ of less than 5.00. In test [1] (12.5 mg/kg), the “hamster flank sebaceous gland differentiation” value is “reduced hamster flank sebaceous gland differentiation at least as effectively as 13-cis retinoic acid”. Further, the pIC50 at CYP26B (P450RAI-2) is 6.22. Further, at CYP26B (P450RAI-2) (ratio of ID50 values), the “selectivity for CYP26B relative to CYP26A” value is “at least 10 fold”.
